Reference: ChEMBL document CHEMBL5036327, “Systematic Optimization of Potent and Orally Bioavailable Purine Scaffold as a Dual Inhibitor of Toll-Like Receptors 7 and 9” (J Med Chem, 2021)
≈ marks a conversion by molar mass, not a printed value.

Assays:
Toll-like receptor 9 = biological target: T1, Toll-like receptor 9 (Homo sapiens, UniProt Q9NR96); test: Antagonist activity at human TLR9 expressed in […] cells assessed as inhibition of CpGB-induced NFkappaB activation measured after overnight incubation by SEAP-based spectrophotometry assay; assay type: cell-based, HEK293
T1 sequence (Q9NR96 whole entry): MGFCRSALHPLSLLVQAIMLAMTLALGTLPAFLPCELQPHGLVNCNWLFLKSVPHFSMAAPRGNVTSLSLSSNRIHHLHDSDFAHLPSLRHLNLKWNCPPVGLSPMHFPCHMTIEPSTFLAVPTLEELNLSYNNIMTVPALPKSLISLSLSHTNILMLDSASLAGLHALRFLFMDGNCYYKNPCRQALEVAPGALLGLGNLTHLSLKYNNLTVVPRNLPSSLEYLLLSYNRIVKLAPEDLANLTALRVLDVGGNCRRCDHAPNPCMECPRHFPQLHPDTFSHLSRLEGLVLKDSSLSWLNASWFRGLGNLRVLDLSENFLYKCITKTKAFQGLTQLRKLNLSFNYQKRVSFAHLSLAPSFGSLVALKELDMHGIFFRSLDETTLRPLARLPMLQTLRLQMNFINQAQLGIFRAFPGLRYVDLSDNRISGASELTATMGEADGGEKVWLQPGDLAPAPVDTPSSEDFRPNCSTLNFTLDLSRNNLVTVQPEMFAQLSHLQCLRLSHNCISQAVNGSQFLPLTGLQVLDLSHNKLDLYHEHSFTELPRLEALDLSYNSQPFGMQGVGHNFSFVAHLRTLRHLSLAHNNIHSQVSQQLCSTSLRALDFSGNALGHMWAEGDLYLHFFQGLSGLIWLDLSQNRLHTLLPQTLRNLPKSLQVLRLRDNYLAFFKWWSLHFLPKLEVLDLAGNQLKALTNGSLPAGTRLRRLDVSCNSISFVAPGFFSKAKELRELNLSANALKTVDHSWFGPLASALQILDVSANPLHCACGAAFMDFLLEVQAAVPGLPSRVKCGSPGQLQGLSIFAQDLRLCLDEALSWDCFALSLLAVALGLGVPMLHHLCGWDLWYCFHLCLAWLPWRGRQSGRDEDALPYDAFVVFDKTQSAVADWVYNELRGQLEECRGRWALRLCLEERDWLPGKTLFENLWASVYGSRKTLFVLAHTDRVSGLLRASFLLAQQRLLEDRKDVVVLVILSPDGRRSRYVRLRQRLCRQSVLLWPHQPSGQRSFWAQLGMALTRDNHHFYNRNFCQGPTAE

[1] = Efflux ratio of apparent permeability across apical to basolateral over basolateral to apical side in human Caco2 cells measured after 10 mins by LC-MS/MS analysis; details: Caco-2
[2] = Apparent permeability across apical to basolateral side in human Caco2 cells at 10 uM measured after 10 mins by LC-MS/MS analysis; details: Caco-2
Toll-like receptor 7 = biological target: T2, Toll-like receptor 7 (Homo sapiens, UniProt Q9NYK1); test: Antagonist activity at human TLR7 expressed in HEK-blue-HTLR7 cells assessed as inhibition of CL264-induced NFkappaB activation measured after overnight incubation by SEAP-based spectrophotometry assay
T2 sequence (Q9NYK1 whole entry): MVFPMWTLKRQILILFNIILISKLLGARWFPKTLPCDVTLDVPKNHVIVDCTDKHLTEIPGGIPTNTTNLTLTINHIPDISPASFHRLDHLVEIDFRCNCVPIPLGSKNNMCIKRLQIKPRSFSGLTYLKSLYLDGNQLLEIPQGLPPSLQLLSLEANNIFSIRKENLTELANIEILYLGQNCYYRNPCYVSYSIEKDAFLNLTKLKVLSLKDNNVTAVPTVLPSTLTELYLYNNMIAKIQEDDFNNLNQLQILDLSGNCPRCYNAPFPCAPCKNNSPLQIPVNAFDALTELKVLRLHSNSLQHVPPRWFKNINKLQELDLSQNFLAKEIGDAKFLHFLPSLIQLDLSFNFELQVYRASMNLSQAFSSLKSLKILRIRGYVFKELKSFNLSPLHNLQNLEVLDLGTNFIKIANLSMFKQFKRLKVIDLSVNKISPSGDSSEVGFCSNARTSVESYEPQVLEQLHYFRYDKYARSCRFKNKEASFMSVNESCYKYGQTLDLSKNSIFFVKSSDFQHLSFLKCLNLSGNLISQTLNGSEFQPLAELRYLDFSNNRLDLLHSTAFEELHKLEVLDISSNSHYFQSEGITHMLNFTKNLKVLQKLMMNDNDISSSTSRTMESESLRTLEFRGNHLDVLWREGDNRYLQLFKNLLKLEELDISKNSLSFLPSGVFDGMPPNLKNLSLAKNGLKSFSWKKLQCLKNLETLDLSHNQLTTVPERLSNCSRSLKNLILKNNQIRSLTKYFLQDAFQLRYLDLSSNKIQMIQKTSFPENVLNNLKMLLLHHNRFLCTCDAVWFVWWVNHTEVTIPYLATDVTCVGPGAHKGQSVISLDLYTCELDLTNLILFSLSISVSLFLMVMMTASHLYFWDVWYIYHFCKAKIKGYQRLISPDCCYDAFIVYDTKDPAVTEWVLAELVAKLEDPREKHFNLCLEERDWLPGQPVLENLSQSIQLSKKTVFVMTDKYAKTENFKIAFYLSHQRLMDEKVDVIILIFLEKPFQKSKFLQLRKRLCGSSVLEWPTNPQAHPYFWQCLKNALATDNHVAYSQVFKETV

[3] = Metabolic stability in human liver microsomes assessed as compound remaining incubated for 60 mins by LC-MS/MS analysis
[4] = Stability in mouse plasma measured after 2 hrs by LC-MS/MS analysis
[5] = Apparent permeability across basolateral to apical side in human Caco2 cells at 10 uM measured after 10 mins by LC-MS/MS analysis; details: Caco-2
[6] = Metabolic stability in human liver microsomes assessed as intrinsic clearance incubated for 60 mins by LC-MS/MS analysis
Toll-like receptor 8 = biological target: T3, Toll-like receptor 8 (Homo sapiens, UniProt Q9NR97); test: Antagonist activity at human TLR8 expressed in […] cells assessed as inhibition of CL075-induced NFkappaB activation measured after overnight incubation by SEAP-based spectrophotometry assay; assay type: cell-based, HEK293
T3 sequence (Q9NR97 whole entry): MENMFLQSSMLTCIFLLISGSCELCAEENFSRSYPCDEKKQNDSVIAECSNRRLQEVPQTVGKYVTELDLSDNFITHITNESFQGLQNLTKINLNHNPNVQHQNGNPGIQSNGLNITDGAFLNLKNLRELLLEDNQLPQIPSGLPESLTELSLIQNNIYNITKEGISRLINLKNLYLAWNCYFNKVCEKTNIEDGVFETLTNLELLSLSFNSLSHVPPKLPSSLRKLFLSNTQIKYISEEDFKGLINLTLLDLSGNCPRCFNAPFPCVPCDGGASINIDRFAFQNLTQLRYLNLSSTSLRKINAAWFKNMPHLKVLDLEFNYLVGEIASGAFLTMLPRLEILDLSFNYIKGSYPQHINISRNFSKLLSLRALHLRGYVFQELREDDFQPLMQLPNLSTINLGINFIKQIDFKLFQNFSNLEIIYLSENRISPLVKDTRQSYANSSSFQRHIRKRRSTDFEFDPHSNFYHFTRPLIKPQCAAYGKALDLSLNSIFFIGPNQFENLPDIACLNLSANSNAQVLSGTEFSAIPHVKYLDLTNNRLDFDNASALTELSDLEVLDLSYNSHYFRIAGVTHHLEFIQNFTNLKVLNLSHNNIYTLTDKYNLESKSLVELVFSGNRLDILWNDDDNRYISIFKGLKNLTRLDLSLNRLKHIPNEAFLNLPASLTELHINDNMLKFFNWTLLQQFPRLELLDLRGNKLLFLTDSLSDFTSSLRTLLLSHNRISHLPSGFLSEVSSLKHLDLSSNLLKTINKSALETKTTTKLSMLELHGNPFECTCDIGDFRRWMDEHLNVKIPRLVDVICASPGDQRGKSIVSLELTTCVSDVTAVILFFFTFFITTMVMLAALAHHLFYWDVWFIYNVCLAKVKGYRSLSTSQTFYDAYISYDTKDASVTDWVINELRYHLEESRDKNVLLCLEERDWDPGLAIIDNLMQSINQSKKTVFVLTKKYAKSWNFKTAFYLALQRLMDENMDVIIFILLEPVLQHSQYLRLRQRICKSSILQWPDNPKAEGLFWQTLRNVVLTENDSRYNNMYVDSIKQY

physchem = details: buffer, pH 7.4
Description: Aqueous solubility of compound at pH 7.4 measured after 18 hrs by UV-spectrometry

[7] = metabolic stability in human liver microsomes assessed as hepatic extraction ratio incubated for 60 mins by LC-MS/MS analysis
[8] = Stability in human plasma measured after 2 hrs by LC-MS/MS analysis
[9] = Metabolic stability in mouse liver microsomes assessed as intrinsic clearance incubated for 60 mins by LC-MS/MS analysis
[10] = Metabolic stability in human liver microsomes assessed as half life incubated for 60 mins by LC-MS/MS analysis
[11] = Metabolic stability in mouse liver microsomes assessed as hepatic extraction ratio incubated for 60 mins by LC-MS/MS analysis

| IC50 (Toll-like receptor 9) [µM] | IC50 (Toll-like receptor 7) [µM] | SMILES | other results |
| --- | --- | --- | --- |
| 1.19 | 4.78 | CCN1CCN(CCCn2cnc3c(N4CCN(CC)CC4)ncnc32)CC1 | efflux ratio at 10 min [1]: 2.6; Papp A→B at 10 min, 10 µM [2]: 3.57 ×10⁻⁶ cm/s; remaining at 1 h [3]: 75.8%; remaining at 2 h [4]: 99%; Papp B→A at 10 min, 10 µM [5]: 9.28 ×10⁻⁶ cm/s; microsomal CLint at 1 h [6]: 7.81 µL/min/mg |
| > 30 | > 30 | CCN1CCN(CCCn2cnc3c(N4CCN(C(=O)c5ccccc5)CC4)nc(NCc4ccc(F)cc4)nc32)CC1 |  |
| 0.19 | 4.94 | CCN1CCN(c2nc(N)nc3c2ncn3CCCN2CCCC2)CC1 |  |
| 0.28 | 13.2 | CCN1CCN(CCCn2cnc3c(N4CCN(C5CCCC5)CC4)nc(N)nc32)CC1 |  |
| 3.4 | 8.4 | CCN1CCN(CCCn2cnc3c(N4CCN(C(=O)c5ccccc5)CC4)nc(NCc4ccc(N(CC)CC)cc4)nc32)CC1 |  |
| 0.5 | 8.49 | CCN1CCN(CCCn2cnc3c(N4CCN(CC)CC4)nc(N4CCCC4)nc32)CC1 |  |
| 0.15 | 8.13 | CCN1CCN(CCCn2cnc3c(N4CCN(C5CCCC5)CC4)nc(NCc4ccc(N(CC)CC)cc4)nc32)CC1 |  |
| 0.04 |  | CCN1CCN(c2nc(NCc3ccc(F)cc3)nc3c2ncn3CCCN2CCCC2)CC1 | IC50 (Toll-like receptor 8): > 30 µM |
| 0.26 | 16.2 | CCN1CCN(CCCn2cnc3c(N4CCN(CC)CC4)nc(N)nc32)CC1 |  |
| 0.25 | > 30 | CCN1CCN(CCCn2cnc3c(N4CCN(C5CCCC5)CC4)nc(NCc4ccc(F)cc4)nc32)CC1 |  |
| > 30 | > 30 | CCN1CCN(CCCn2cnc3c(N4CCN(C(=O)c5ccccc5)CC4)nc(N4CCCC4)nc32)CC1 |  |
| > 30 | > 30 | CCN1CCN(CCCn2cnc3c(N4CCN(C(=O)C5CCCC5)CC4)nc(NCc4ccc(F)cc4)nc32)CC1 |  |
| > 30 | > 30 | CCN1CCN(CCCn2cnc3c(N4CCN(C(=O)c5ccccc5)CC4)nc(N)nc32)CC1 |  |
| 0.06 |  | CCN1CCN(CCCn2cnc3c(N4CCN(C5CCCC5)CC4)nc(NC(=O)c4ccc(CN(C)C)cc4)nc32)CC1 | IC50 (Toll-like receptor 8): > 30 µM |
|  | 11.6 | COc1ccc(CNc2nc(N3CCN(C4CCCC4)CC3)c3ncn(CCCN4CCCC4)c3n2)cc1 |  |
| 0.12 | 4.88 | Nc1nc(N2CCN(C3CCCC3)CC2)c2ncn(CCCN3CCCC3)c2n1 |  |
|  | 7.59 | CCN1CCN(CCCn2cnc3c(N4CCN(CC)CC4)nc(NCc4ccccc4)nc32)CC1 |  |
|  |  | CCN1CCN(c2nc(NCc3ccc(OC)cc3)nc3c2ncn3CCCN2CCCC2)CC1 | IC50 (Toll-like receptor 8): > 30 µM |
|  | 10.1 | CCN1CCN(CCCn2cnc3c(N4CCN(CC)CC4)nc(NCc4ccc(F)cc4)nc32)CC1 |  |
| 0.2 | 5.22 | CCN1CCN(CCCn2cnc3c(N4CCN(CC)CC4)nc(NCc4ccc(OC)cc4)nc32)CC1 |  |
| > 30 | > 30 | CCN1CCN(CCCn2cnc3c(N4CCN(C(=O)C5CCCC5)CC4)nc(N)nc32)CC1 |  |
|  | 7.74 | CCN1CCN(CCCn2cnc3c(N4CCN(CC)CC4)nc(NC(=O)c4ccccc4)nc32)CC1 |  |
| 0.09 | 17.8 | CCN1CCN(c2nc(NCc3ccc(CN(C)C)cc3)nc3c2ncn3CCCN2CCCC2)CC1 | efflux ratio at 10 min [1]: 0.7; solubility at 18 h (physchem): 136 µg/mL (≈ 269 µM); Papp A→B at 10 min, 10 µM [2]: 92.2 ×10⁻⁶ cm/s; hepatic extraction ratio at 1 h [7]: 0.241; remaining at 1 h [3]: 50.7%; remaining at 2 h [8]: 58%; microsomal CLint at 1 h [9]: 4.74 µL/min/mg; remaining at 2 h [4]: 22%; Papp B→A at 10 min, 10 µM [5]: 61.2 ×10⁻⁶ cm/s; microsomal CLint at 1 h [6]: 7.1 µL/min/mg; half-life at 1 h [10]: 1.87 h; hepatic extraction ratio at 1 h [11]: 0.114 |
|  | > 30 | CCN1CCN(CCCn2cnc3c(N4CCN(C5CCCC5)CC4)nc(NCc4ccc(OC)cc4)nc32)CC1 |  |
| > 30 | > 30 | CCN1CCN(CCCn2cnc3c(N4CCN(C(=O)c5ccccc5)CC4)nc(NCc4ccc(OC)cc4)nc32)CC1 |  |
| > 30 | > 30 | CCN1CCN(CCCn2cnc3c(N4CCN(C(=O)C5CCCC5)CC4)nc(NCc4ccc(OC)cc4)nc32)CC1 |  |
